Data: US8318769B2, “Substituted sulfonamide compounds” (Gruenethal GmbH, priority 2008, dated 2012)

What was measured:
[1] = molecular target: T1, human bradykinin 1 receptor (B1R) (Homo sapiens, UniProt P46663); experiment: FLIPR Ca2+ assay, B1R antagonism, human; format: cell-based; conditions: 10 μM test substance, CHO K1 cells with human B1R gene (hB1R cells), Lys-Des-Arg9-bradykinin at EC80, % inhibition compared with the maximum achievable inhibition; for inhibition at 10 µM: read-out: B1R antagonism, human [10 μM] % inhibition
T1 construct: expressed in transfected cells
T1 sequence (P46663 1-353): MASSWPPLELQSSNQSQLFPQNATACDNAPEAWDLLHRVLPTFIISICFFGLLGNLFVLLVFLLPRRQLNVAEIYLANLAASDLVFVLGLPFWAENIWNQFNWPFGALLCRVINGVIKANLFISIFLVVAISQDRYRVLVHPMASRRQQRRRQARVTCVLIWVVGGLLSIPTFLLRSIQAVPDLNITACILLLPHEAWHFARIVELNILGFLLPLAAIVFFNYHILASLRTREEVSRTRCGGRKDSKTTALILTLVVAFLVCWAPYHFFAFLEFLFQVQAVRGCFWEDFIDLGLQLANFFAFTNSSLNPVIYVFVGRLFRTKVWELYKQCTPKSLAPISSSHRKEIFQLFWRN
Outline: (§1)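 Antagonism is given as % of maximum achievable suppression of agonist-evoked Ca2+ influx, measured by Fluo-4 peak fluorescence in FLIPR. Stable hB1R or rB1R CHO K1 lines received 10 μM compound for 10-20 min before EC80 Lys-Des-Arg9-bradykinin (human) or Des-Arg9-bradykinin (rat).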

[2] = molecular target: T2, bradykinin 1 receptor (B1R) of the rat (Rattus norvegicus, UniProt P97583); experiment: FLIPR Ca2+ assay, B1R antagonism, rat; format: cell-based; conditions: CHO K1 cells with rat B1R gene (rB1R cells), Des-Arg9-bradykinin at EC80, % inhibition compared with the maximum achievable inhibition; for inhibition at 10 µM: CHO-K1, 10 μM test substance, read-out: B1R antagonism, rat [10 μM] % inhibition
T2 construct: expressed in transfected cells
T2 sequence (P97583 1-337): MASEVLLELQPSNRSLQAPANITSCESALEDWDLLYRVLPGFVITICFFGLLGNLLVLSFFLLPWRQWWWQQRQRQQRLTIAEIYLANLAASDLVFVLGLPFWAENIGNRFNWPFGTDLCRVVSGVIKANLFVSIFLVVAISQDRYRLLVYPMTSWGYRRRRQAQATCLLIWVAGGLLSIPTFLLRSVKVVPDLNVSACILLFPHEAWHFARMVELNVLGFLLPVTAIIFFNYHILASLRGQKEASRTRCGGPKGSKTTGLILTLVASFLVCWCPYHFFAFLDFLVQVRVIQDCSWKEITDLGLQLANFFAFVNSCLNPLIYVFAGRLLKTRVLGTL
Outline: as §1

| inhibition at 10 µM [1] | inhibition at 10 µM [2] | B1R antagonism, human [10 μM] % inhibition [1] | B1R antagonism, rat [10 μM] % inhibition ([2]; 10 μM test substance, 10 µM) | SMILES |
| --- | --- | --- | --- | --- |
| 100% | 97% |  |  | O=C(COCC1CCCCN1S(=O)(=O)c1ccccc1C(F)(F)F)N1CCC(OCCN2CCCC2)(c2cccc(F)c2)CC1 (stereo not shown) [Example 118, 1-[4-(3-fluorophenyl)-4-(2-pyrrolidin-1-yl-ethoxy)-piperidin-1-yl]-2-[[1-[[2-(trifluoromethyl)-phenyl]sulfonyl]-piperidin-2-yl]-methoxy]-ethanone] |
| 100% | 102% |  |  | Cc1cccc(Cl)c1S(=O)(=O)N(CCOCC(=O)N1CCC(OCC[N+]2([O-])CCCC2)(c2cccc(F)c2)CC1)C1CC1 [Example 53, 2-chloro-N-cyclopropyl-N-[2-[2-[4-(3-fluorophenyl)-4-[2-(1-oxido-pyrrolidin-1-ium-1-yl)-ethoxy]-piperidin-1-yl]-2-oxo-ethoxy]-ethyl]-6-methyl-benzenesulfonic acid amide] |
| 100% | 101% |  |  | O=C(COC[C@@H]1CCCCN1S(=O)(=O)c1ccccc1C(F)(F)F)N1CCC(OCCN2CCCC2)(c2cccnc2)CC1 [Example 47, (S)-1-(4-(pyridin-3-yl)-4-(2-(pyrrolidin-1-yl)ethoxy)piperidin-1-yl)-2-((1-(2-(trifluoromethyl)phenylsulfonyl)piperidin-2-yl)methoxy)ethanone] |
| 100% | 99% |  |  | COc1cc(C)c(S(=O)(=O)N2CCCCC2COCCC(=O)N2CCC(OCCN3CCCC3)(c3cccc(F)c3)CC2)c(C)c1 (stereo not shown) [Example 121, 1-[4-(3-fluorophenyl)-4-(2-pyrrolidin-1-yl-ethoxy)-piperidin-1-yl]-3-[[1-[(4-methoxy-2,6-dimethyl-phenyl)sulfonyl]-piperidin-2-yl]-methoxy]-propan-1-one] |
| 97% | 104% |  |  | COc1cc(C)c(S(=O)(=O)N2CCCC[C@H]2COCC(=O)N2CCC(COCCN3CCCC3)(c3cccnc3)CC2)c(C)c1 [Example 49, (S)-2-((1-(4-methoxy-2,6-dimethylphenylsulfonyl)piperidin-2-yl)methoxy)-1-(4-(pyridin-3-yl)-4-((2-(pyrrolidin-1-yl)ethoxy)methyl)piperidin-1-yl)ethanone] |
| 100% | 103% |  |  | COc1cc(C)c(S(=O)(=O)N2CCCC[C@H]2COCC(=O)N2CCC(OCCN3CCCC3)(c3ccncc3)CC2)c(C)c1 [Example 57, 2-[[(2S)-1-[(4-methoxy-2,6-dimethyl-phenyl)sulfonyl]-piperidin-2-yl]-methoxy]-1-[4-pyridin-4-yl-4-(2-pyrrolidin-1-yl-ethoxy)-piperidin-1-yl]-ethanone] |
| 100% | 104% |  |  | COc1cc(C)c(S(=O)(=O)N2CCCC[C@H]2COCC(=O)N2CCC(OCCN3CCCC3)(c3cccnc3)C2)c(C)c1 (stereo partly drawn) [Example 50, 2-(((S)-1-(4-methoxy-2,6-dimethylphenylsulfonyl)piperidin-2-yl)methoxy)-1-(3-(pyridin-3-yl)-3-(2-(pyrrolidin-1-yl)ethoxy)pyrrolidin-1-yl)ethanone] |
| 98% | 97% |  |  | COc1cc(C)c(S(=O)(=O)N2CCCC[C@H]2COCC(=O)N2CCC(OCCN3CCCC3)(c3cccc(F)c3)CC2)c(C)c1 [Example 51, (S)-1-(4-(3-fluorophenyl)-4-(2-(pyrrolidin-1-yl)ethoxy)piperidin-1-yl)-2-((1-(4-methoxy-2,6-dimethylphenylsulfonyl)piperidin-2-yl)methoxy)ethanone] |
|  |  | 100% | 100% | COc1cc(C)c(S(=O)(=O)N2CCCCC2COCCC(=O)N2CCC(OCCN3CCCC3)(c3cccc(F)c3)CC2)c(C)c1 (stereo not shown) [Example 122, 1-[4-(3-fluorophenyl)-4-(2-pyrrolidin-1-yl-ethoxy)-piperidin-1-yl]-3-[[1-[(4-methoxy-2,6-dimethyl-phenyl)sulfonyl]-piperidin-2-yl]-methoxy]-propan-1-one] |
| 100% | 81% |  |  | O=C(COCC1COc2ccccc2N1S(=O)(=O)c1ccccc1C(F)(F)F)N1CCC(OCCN2CCCC2)(c2ccncc2)CC1 (stereo not shown) [Example 112, 1-[4-pyridin-4-yl-4-(2-pyrrolidin-1-yl-ethoxy)-piperidin-1-yl]-2-[[4-[[2-(trifluoromethyl)-phenyl]sulfonyl]-3,4-dihydro-2H-[1,4]benzoxazin-3-yl]-methoxy]-ethanone] |

More lines, now with the values behind:

| SMILES | inhibition at 10 µM [1] | inhibition at 10 µM [2] | B1R antagonism, human [10 μM] % inhibition [1] | B1R antagonism, rat [10 μM] % inhibition ([2]; 10 μM test substance, 10 µM) |
| --- | --- | --- | --- | --- |
| COc1cc(C)c(S(=O)(=O)N(C)CCOCC(=O)N2CCC(OCCCN3CCCC3)(c3cccnc3)CC2)c(C)c1 [Example 41, 4-methoxy-N,2,6-trimethyl-N-(2-(2-oxo-2-(4-(pyridin-3-yl)-4-(3-(pyrrolidin-1-yl)propoxy)piperidin-1-yl)ethoxy)ethyl)benzenesulfonamide] | 100% | 101% |  |  |
| O=C(CC1CCCCN1S(=O)(=O)c1cccc(C(F)(F)F)c1)N1CCC(OCCN2CCCCC2)(c2cccnc2)CC1 (stereo not shown) [Example 10, 1-(4-(2-(piperidin-1-yl)ethoxy)-4-(pyridin-3-yl)piperidin-1-yl)-2-(1-(3-(trifluoromethyl)phenylsulfonyl)piperidin-2-yl)ethanone] | 104% | 44% |  |  |
| O=C(CC1CCCCN1S(=O)(=O)c1cccc(C(F)(F)F)c1)N1CCC(OCCN2CCCC2)(c2cccnc2)CC1 (stereo not shown) [Example 22, 1-(4-(pyridin-3-yl)-4-(2-(pyrrolidin-1-yl)ethoxy)piperidin-1-yl)-2-(1-(3-(trifluoromethyl)phenylsulfonyl)piperidin-2-yl)ethanone] | 39% | 102% |  |  |
| COc1cc(C)c(S(=O)(=O)N2CCCCC2COCC(=O)N2CCC(OCCN3CCCC3)(c3cccnc3)CC2)c(C)c1 (stereo not shown) [Example 20, 2-((1-(4-methoxy-2,6-dimethylphenylsulfonyl)piperidin-2-yl)methoxy)-1-(4-(pyridin-3-yl)-4-(2-(pyrrolidin-1-yl)ethoxy)piperidin-1-yl)ethanone] | 104% | 102% |  |  |
| COc1cc(C)c(S(=O)(=O)N(CCOCC(=O)N2CCC(OCCN3CCCC3)(c3cccnc3)CC2)C2CC2)c(C)c1 [Example 3, N-cyclopropyl-4-methoxy-2,6-dimethyl-N-(2-(2-oxo-2-(4-(pyridin-3-yl)-4-(2-(pyrrolidin-1-yl)ethoxy)piperidin-1-yl)ethoxy)ethyl)benzenesulfonamide] | 100% | 101% |  |  |
| COc1cc(C)c(S(=O)(=O)N2CCCCC2COCC(=O)N2CCC(OCCN3CCN(C)CC3)(c3cccnc3)CC2)c(C)c1 (stereo not shown) [Example 28, 2-((1-(4-methoxy-2,6-dimethylphenylsulfonyl)piperidin-2-yl)methoxy)-1-(4-(2-(4-methylpiperazin-1-yl)ethoxy)-4-(pyridin-3-yl)piperidin-1-yl)ethanone] | 97% | 102% |  |  |
| Cc1cc(S(=O)(=O)N2CCCCC2CCC(=O)N2CCC(OCCN3CCCC3)(c3cccnc3)CC2)c(C)cc1Cl (stereo not shown) [Example 25, 3-(1-(4-chloro-2,5-dimethylphenylsulfonyl)piperidin-2-yl)-1-(4-(pyridin-3-yl)-4-(2-(pyrrolidin-1-yl)ethoxy)piperidin-1-yl)propan-1-one] | 86% | 72% |  |  |
| Cc1cc(S(=O)(=O)N2CCCCC2CCC(=O)N2CCC(OCCCN3CCCCC3)(c3cccnc3)CC2)c(C)cc1Cl (stereo not shown) [Example 12, 3-(1-(4-chloro-2,5-dimethylphenylsulfonyl)piperidin-2-yl)-1-(4-(3-(piperidin-1-yl)propoxy)-4-(pyridin-3-yl)piperidin-1-yl)propan-1-one] | 103% | 46% |  |  |
| COc1cc(C)c(S(=O)(=O)N(CCOCC(=O)N2CCC(OCCN3CCCC3)(c3cccnc3)CC2)Cc2cccnc2)c(C)c1 [Example 5, 4-methoxy-2,6-dimethyl-N-(2-(2-oxo-2-(4-(pyridin-3-yl)-4-(2-(pyrrolidin-1-yl)ethoxy)piperidin-1-yl)ethoxy)ethyl)-N-(pyridin-3-ylmethyl)benzenesulfonamide] | 100% | 102% |  |  |
| O=C(CC1CCCCN1S(=O)(=O)c1cccc(C(F)(F)F)c1)N1CCC(OCCCN2CCCCC2)(c2cccnc2)CC1 (stereo not shown) [Example 23, 1-(4-(3-(piperidin-1-yl)propoxy)-4-(pyridin-3-yl)piperidin-1-yl)-2-(1-(3-(trifluoromethyl)phenylsulfonyl)piperidin-2-yl)ethanone] | 57% | 46% |  |  |
